Data from patent publication US9029399B2, “17α-hydroxylase/C17,20-lyase inhibitors” (Novartis AG, priority 2011, dated 2015).
pIC50: −log10 of the molar value.

Experiments:
Rat CYP 17 Lyase = Rat CYP 17 Lyase (Rattus norvegicus (Rat), UniProt P11715); assay: Rat CYP17 lyase model, rat testes microsomes; assay type: biochemical; conditions: substrate 0.5 μM, second value of Human/Rat cell, read-out: Lyase IC 50 Rat
Experimental: For the Rat CYP 17 Lyase Model:
The same procedure described above was used but using rat testes microsomes as the source and with a substrate concentration of 0.5 μM.

[1] = biological target: Human CYP17 enzyme (Cytochrome P450, 17-20 lyase) (Homo sapiens (Human), UniProt P05093); assay: CYP17 lyase assay, recombinant human CYP17 enzyme, 17-α-hydroxy pregnenolone [21-3H] substrate; assay type: biochemical; conditions: for pIC50: recombinant human CYP17, first value of Human/Rat cell, read-out: Lyase IC 50 Human
Description: 1) Cvtochrome P450, 17-20 Lyase (CYP17-Lyase) Assay Development Using Recombinant Human CYP17 Enzyme and 17-α-Hydroxy Pregnenolone [21-3H] as the Substrate
Cytochrome P450, 17-α-Hydroxylase, 17-20 lyase (CYP17) is a multi functional enzyme that plays a key role in the biosynthesis of steroid hormones. […] In the hydroxylation reaction, it converts progesterone and pregnenolone to the corresponding hydroxylated products 17-α-hydroxy progesterone and 17-α-hydroxy pregnenolone. In the lyase reaction, it catalyzes the conversion of these hydroxylated substrates to Androstenedione and Dehydroepiandrosterone (DHEA) respectively. In the Cyp17 lyase assay described here, the conversion of 17-α-hydroxy pregnenolone to Dehydroepiandrosterone and acetic acid is being monitored.
The conversion of 17-α-hydroxy pregnenolone to Dehydroepiandrosterone is accompanied by the release of acetic acid. In the Cyp17 lyase assay, 17-α-hydroxy pregnenolone labeled with tritium (3H) at position 21 is used as the substrate. Chloroform extraction removes the radioactive steroids and acetic acid is taken into aqueous layer. The tritiated acetic acid released in the assay thus extracted is quantified to determine the enzyme activity.
Human Cyp 17 gene was cloned and expressed in Adenoviral expression system in A549 cell lines. The purified cell membrane preparations were used as the source for Human CYP17 enzyme. Total protein concentration: 8 mg/mL.
For routine screening, the assay was set up with 16 μg of enzyme in 50 μL reaction volume. 17α-hydroxy pregnenolone [21-3H] was added to a final concentration of […] NADPH is used at a final concentration of 4.2 mM. Total reaction volume was made up to 50 μL with 50 mM Phosphate buffer pH 7.5. The reaction mixture was incubated at room temperature for 90 minutes with gentle shaking. The reaction was stopped by the addition of 100 μl, of buffer. 500 μl, of 5% freshly prepared activated charcoal was added to the solution and mixed well by vortexing. The samples were centrifuged at 17568×g for 5 minutes. (14000 rpm). The supernatant was carefully transferred to fresh tube and 1.3 mL of scintillation fluid was added, mixed by vortexing.
The measurements were carried out in 2.0 mL Eppendorf™ tubes. Each tube was counted for 1 minute. The amount of tritiated acetic acid released is proportional to the lyase activity. Percent lyase activity in presence of inhibitor was calculated using the formula given below.
[formula] Sample: Enzyme reaction in presence of inhibitor. Positive control: Enzyme reaction without inhibitor but containing DMSO at 1% final concentration. Blank—Contains all reagents except enzyme. % Inhibition=100%−% Lyase activity
For IC50 determination, the % inhibition was plotted as a function of inhibitor concentration. The data was fitted to sigmoidal equation using Graphpad Prism® software IV to generate IC50 values.

Chain of Human CYP17 enzyme (Cytochrome P450, 17-20 lyase) (P05093 whole entry): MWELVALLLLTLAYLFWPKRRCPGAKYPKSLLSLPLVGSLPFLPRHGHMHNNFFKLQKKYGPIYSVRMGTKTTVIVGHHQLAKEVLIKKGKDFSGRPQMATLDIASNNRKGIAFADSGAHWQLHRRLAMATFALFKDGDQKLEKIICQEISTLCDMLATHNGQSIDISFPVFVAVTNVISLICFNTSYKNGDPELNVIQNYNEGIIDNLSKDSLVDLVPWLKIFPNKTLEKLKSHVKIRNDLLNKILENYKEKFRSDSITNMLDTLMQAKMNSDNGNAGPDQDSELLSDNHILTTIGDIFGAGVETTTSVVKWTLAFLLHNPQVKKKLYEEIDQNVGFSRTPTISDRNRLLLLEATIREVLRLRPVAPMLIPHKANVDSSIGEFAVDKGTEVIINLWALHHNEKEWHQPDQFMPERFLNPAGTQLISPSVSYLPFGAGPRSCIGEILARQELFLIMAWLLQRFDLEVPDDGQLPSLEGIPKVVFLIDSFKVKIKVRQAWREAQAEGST
Chain of Rat CYP 17 Lyase (P11715 whole entry): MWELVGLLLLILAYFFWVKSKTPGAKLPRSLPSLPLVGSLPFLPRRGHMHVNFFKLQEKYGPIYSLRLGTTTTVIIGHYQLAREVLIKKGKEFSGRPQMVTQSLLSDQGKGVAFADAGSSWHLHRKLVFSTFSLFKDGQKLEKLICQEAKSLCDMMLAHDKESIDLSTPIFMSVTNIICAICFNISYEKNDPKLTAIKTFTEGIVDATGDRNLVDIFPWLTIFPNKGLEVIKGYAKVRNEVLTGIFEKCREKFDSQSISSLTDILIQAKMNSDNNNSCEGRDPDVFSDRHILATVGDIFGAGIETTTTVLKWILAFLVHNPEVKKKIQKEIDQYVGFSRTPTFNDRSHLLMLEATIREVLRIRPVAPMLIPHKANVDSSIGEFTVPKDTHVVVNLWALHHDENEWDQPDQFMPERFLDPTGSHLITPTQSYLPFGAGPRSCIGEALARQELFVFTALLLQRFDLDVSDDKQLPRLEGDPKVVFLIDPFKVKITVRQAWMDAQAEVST

inhibition at 10 µM [1] [%] | SMILES | pIC50 (Rat CYP 17 Lyase) | pIC50 [1]
 | O=C1N(c2ccnc(Cl)c2)CCN1c1cnccc1C1CC1 [Example 1A, 1-(2-chloropyridin-4-yl)-3-(4-cyclopropylpyridin-3-yl)imidazolidin-2-one] | 8.57 | 8.10
 | O=C1N(c2ccnc(C(F)(F)F)c2)CCN1c1cnccc1C1CC1 [Example 2A, 1-(4-cyclopropylpyridin-3-yl)-3-(2-(trifluoromethyl)pyridin-4-yl)imidazolidin-2-one] | 8.96 | 8.05
 | COc1cc(N2CCN(c3cnccc3C3CC3)C2=O)ccn1 [Example 9A, 1-(4-cyclopropylpyridin-3-yl)-3-(2-methoxypyridin-4-yl)imidazolidin-2-one] | 8.34 | 7.38
 | O=C1N(c2cnccc2C2CC2)[C@@H]2C[C@@H]2N1c1ccnc(C(F)(F)F)c1 [Example 32A-II, (1R,5S)-2-(4-cyclopropylpyridin-3-yl)-4-(2-(trifluoromethyl)pyridin-4-yl)-2,4-diazabicyclo[3.1.0]hexan-3-one] | 8.52 | 8.16
 | O=C1N(c2ccnc(C3CC3)c2)CCN1c1cnccc1C1CC1 [Example 39A, 1-(4-cyclopropylpyridin-3-yl)-3-(2-cyclopropylpyridin-4-yl)imidazolidin-2-one] |  | 7.92
 | COc1cc(N2CCN(c3cnccc3C3CC3)C2=O)ncn1 [Example 40A, 1-(4-cyclopropylpyridin-3-yl)-3-(6-methoxypyrimidin-4-yl)imidazolidin-2-one] |  | 7.08
 | Cc1cc(N2CCN(c3cnccc3C3CC3)C2=O)ncn1 [Example 41A, 1-(4-cyclopropylpyridin-3-yl)-3-(6-methylpyrimidin-4-yl)imidazolidin-2-one] |  | 7.15
 | Cc1cc(N2CCN(c3cnccc3C3CC3)C2=O)ncc1F [Example 42A, 1-(4-cyclopropylpyridin-3-yl)-3-(5-fluoro-4-methylpyridin-2-yl)imidazolidin-2-one] |  | 7.66
 | O=C1N(c2ccnc(C3CC3)n2)CCN1c1cnccc1C1CC1 [Example 43A, 1-(4-cyclopropylpyridin-3-yl)-3-(2-cyclopropylpyrimidin-4-yl)imidazolidin-2-one] |  | 7.44
 | Cc1nccc(N2CCN(c3cnccc3C3CC3)C2=O)n1 [Example 44A, 1-(4-cyclopropylpyridin-3-yl)-3-(2-methylpyrimidin-4-yl)imidazolidin-2-one] |  | 6.40
 | O=C1N(c2cc(Cl)nc(C(F)(F)F)n2)CCN1c1cnccc1C1CC1 [Example 45A, 1-(6-chloro-2-(trifluoromethyl)pyrimidin-4-yl)-3-(4-cyclopropylpyridin-3-yl) imidazolidin-2-one] |  | 8.00
 | O=C1N(c2cc(Cl)nc(Cl)c2)CCN1c1cnccc1C1CC1 [Example 46A, 1-(4-cyclopropylpyridin-3-yl)-3-(2,6-dichloropyridin-4-yl)imidazolidin-2-one] |  | 8.72
 | O=C1N(c2cc(Cl)nc(C3CC3)c2)CCN1c1cnccc1C1CC1 [Example 47A, 1-(2-chloro-6-cyclopropylpyridin-4-yl)-3-(4-cyclopropylpyridin-3-yl)imidazolidin-2-one] |  | 8.28
 | O=C1N(c2cc(C3CC3)nc(C(F)(F)F)c2)CCN1c1cnccc1C1CC1 [Example 48A, 1-(2-cyclopropyl-6-(trifluoromethyl)pyridin-4-yl)-3-(4-cyclopropylpyridin-3-yl)imidazolidin-2-one] |  | 8.32
 | O=C1N(c2cc(C(F)(F)F)nc(C(F)(F)F)c2)CCN1c1cnccc1C1CC1 [Example 49A, 1-(2,6-bis(trifluoromethyl)pyridin-4-yl)-3-(4-cyclopropylpyridin-3-yl)imidazolidin-2-one] |  | 8.22
51 | O=C1N(c2ccnc(C(F)(F)F)c2)CCN1c1c(C2CC2)ccnc1O [Example 50A, 1-(4-cyclopropyl-2-hydroxypyridin-3-yl)-3-(2-(trifluoromethyl)pyridin-4-yl)imidazolidin-2-one] |  | 
